Drawing on ChEMBL document CHEMBL1141850, “Glucosidation of betulinic acid by Cunninghamella species” (1999), this text covers EC50 for two compounds.

Converted amounts (≈) assume the structure as drawn.

Type in all cases: functional
What all share (conditions): read-out: ED50 (the source's name)

Experiment [1] can be described thus: Cytotoxicity against human MEL1 cells.
The nature of experiment [2]: Cytotoxicity against human MEL2 cells.
The nature of experiment [3]: Cytotoxicity against human MEL3 cells.
Experiment [4] in a line: Cytotoxicity against human MEL7 cells.

`C=C(C)[C@@H]1CC[C@]2(C(=O)O[C@@H]3O[C@H](CO)[C@@H](O)[C@H](O)[C@H]3O)CC[C@]3(C)[C@H](CC[C@@H]4[C@@]5(C)CC[C@H](O)C(C)(C)[C@@H]5CC[C@]43C)[C@@H]12`: the EC50 in experiment [1], in experiment [2], in experiment [3] and in experiment [4] was over 20 µg/mL throughout.

Regarding `C=C(C)[C@@H]1CC[C@]2(C(=O)O)CC[C@]3(C)[C@H](CC[C@@H]4[C@@]5(C)CC[C@H](O)C(C)(C)[C@@H]5CC[C@]43C)[C@@H]12` [BETULINIC ACID], the EC50 in experiment [1] was found to be 1.4 µg/mL (≈ 3.07 µM); in experiment [2], 1.2 µg/mL (≈ 2.63 µM); in experiment [3] it was 1.8 µg/mL (≈ 3.94 µM); in experiment [4], 4.4 µg/mL (≈ 9.63 µM).
